Values belong to the molecule of their own block, whether it stands above or below them.
How the values were obtained:
Acetylcholinesterase [1] = molecular target: T1, Acetylcholinesterase (Homo sapiens, UniProt P22303)
Description: Inhibition of human AChE by Ellman's method

Beta-secretase 1 [2] = molecular target: T2, Beta-secretase 1 (Homo sapiens, UniProt P56817); assay: Inhibition of BACE-1 (unknown origin) measured after 2 hrs by FRET assay
Acetylcholinesterase [3] = molecular target: T3, Acetylcholinesterase (Electrophorus electricus, UniProt O42275); assay: Inhibition of electric eel AChE using acetylthiocholine iodide as substrate preincubated with compounds for 20 mins followed by substrate addition and measured after 5 mins by Ellman's method
T3 sequence (O42275 whole entry): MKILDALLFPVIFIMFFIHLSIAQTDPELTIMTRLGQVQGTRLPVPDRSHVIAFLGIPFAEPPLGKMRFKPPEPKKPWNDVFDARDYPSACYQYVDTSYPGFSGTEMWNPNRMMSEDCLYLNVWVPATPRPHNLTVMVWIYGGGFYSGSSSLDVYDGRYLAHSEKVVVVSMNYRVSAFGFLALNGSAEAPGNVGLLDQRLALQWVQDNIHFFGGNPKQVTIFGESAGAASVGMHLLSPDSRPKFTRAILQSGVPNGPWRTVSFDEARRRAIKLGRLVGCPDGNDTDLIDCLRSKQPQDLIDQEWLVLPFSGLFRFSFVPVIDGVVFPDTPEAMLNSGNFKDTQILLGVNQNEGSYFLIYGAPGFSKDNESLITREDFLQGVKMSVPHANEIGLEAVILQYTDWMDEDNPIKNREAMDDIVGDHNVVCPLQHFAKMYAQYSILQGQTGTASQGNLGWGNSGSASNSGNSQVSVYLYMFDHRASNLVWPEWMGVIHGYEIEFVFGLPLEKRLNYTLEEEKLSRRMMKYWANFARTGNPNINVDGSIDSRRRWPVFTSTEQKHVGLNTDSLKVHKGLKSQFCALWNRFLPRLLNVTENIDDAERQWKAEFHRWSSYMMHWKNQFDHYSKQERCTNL

[4] = molecular target: T4, Amine oxidase [flavin-containing] B (Homo sapiens, UniProt P27338); assay: Inhibition of MAO-B (unknown origin)
T4 sequence (P27338 whole entry): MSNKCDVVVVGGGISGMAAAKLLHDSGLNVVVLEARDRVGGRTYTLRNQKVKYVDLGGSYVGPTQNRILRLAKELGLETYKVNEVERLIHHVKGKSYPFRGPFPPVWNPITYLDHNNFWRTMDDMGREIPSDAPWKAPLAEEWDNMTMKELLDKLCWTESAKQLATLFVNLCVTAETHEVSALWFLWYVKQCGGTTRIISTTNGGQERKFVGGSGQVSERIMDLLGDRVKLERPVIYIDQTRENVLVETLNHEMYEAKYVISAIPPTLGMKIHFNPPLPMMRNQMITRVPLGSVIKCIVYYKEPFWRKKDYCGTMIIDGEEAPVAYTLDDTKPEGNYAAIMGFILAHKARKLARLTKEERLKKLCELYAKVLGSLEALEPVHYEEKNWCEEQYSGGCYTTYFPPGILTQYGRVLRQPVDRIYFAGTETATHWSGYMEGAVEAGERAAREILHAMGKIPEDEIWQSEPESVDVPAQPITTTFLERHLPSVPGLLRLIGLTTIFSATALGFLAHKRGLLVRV

Acetylcholinesterase [5] = molecular target: T1, Acetylcholinesterase; assay: Inhibition of AChE (unknown origin) using acetylthiocholine iodide as substrate measured for 20 mins by Ellman's method
[6] = molecular target: T5, Amine oxidase [flavin-containing] A (Homo sapiens, UniProt P21397); assay: Inhibition of MAO-A (unknown origin)
T5 sequence (P21397 whole entry): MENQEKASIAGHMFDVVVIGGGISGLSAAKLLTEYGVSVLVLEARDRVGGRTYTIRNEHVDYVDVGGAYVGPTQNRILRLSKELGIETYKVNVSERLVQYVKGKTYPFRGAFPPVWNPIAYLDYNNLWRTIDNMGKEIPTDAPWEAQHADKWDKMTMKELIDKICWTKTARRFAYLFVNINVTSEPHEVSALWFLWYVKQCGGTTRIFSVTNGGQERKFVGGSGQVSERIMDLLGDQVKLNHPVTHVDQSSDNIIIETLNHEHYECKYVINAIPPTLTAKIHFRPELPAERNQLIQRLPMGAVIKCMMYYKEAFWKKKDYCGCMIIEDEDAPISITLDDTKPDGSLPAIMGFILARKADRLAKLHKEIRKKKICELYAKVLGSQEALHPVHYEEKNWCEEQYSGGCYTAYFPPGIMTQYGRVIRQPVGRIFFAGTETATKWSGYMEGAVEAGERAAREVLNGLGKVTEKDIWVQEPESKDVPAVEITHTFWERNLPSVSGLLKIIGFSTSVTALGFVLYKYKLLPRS

Acetylcholinesterase [7] = molecular target: T1, Acetylcholinesterase; assay: Inhibition of AChE (unknown origin) using acetylthiocholine iodide as substrate measured after 15 mins by Ellman's method
Beta-secretase 1 [8] = molecular target: T2, Beta-secretase 1; assay: Inhibition of BACE-1 (unknown origin) incubated for 60 mins by TR-FRET assay
Acetylcholinesterase [9] = molecular target: T1, Acetylcholinesterase; assay: Inhibition of AChE (unknown origin) incubated for 1 hr by Ellman's method
Beta-secretase 1 [10] = molecular target: T2, Beta-secretase 1; assay: Inhibition of BACE-1 (unknown origin)
Acetylcholinesterase [11] = molecular target: T1, Acetylcholinesterase; assay: Inhibition of AChE (unknown origin) by Ellman's method
Cholinesterase [12] = molecular target: Cholinesterase (Homo sapiens, UniProt P06276); assay: Inhibition of BChE (unknown origin) incubated for 10 mins by Ellman's method
Sequence of Cholinesterase (Homo sapiens, UniProt P06276) (P06276 whole entry): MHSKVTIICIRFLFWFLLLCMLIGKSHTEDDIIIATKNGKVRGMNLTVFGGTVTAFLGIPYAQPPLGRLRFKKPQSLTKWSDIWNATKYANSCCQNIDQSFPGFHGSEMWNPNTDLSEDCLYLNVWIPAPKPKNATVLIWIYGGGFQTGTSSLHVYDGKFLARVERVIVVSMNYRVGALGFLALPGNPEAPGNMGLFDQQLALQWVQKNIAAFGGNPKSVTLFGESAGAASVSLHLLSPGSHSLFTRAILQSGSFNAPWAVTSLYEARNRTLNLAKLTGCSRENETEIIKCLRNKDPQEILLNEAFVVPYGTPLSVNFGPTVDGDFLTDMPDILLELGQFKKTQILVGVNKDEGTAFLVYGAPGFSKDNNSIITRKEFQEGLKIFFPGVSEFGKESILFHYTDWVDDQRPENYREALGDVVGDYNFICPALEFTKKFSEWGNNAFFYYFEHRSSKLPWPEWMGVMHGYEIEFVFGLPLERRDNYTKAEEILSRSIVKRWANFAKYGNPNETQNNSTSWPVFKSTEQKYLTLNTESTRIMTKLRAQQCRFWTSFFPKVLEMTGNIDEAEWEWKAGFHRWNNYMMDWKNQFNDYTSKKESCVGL

Beta-secretase 1 [13] = molecular target: T2, Beta-secretase 1; assay: Inhibition of human BACE-1 by FRET assay
Acetylcholinesterase [14] = molecular target: T1, Acetylcholinesterase; assay: Inhibition of human recombinant AChE using acetylthiocholine iodide as substratE incubated for 20 mins by DTNB reagent based Ellman's method
Acetylcholinesterase [15] = molecular target: T1, Acetylcholinesterase; assay: Inhibition of human AChE using acetylthiocholine iodide as substrate preincubated for 15 mins followed by substrate addition and measured for 30 mins by Ellman's method
Acetylcholinesterase [16] = molecular target: T3, Acetylcholinesterase; assay: Inhibition of electric eel AChE using acetylthiocholine iodide as substrate preincubated for 5 mins followed by substrate addition by DTNB reagent based Ellman's method
[17] = molecular target: High affinity cGMP-specific 3',5'-cyclic phosphodiesterase 9A (Homo sapiens, UniProt O76083); assay: Inhibition of PDE9A (unknown origin)
Sequence of High affinity cGMP-specific 3',5'-cyclic phosphodiesterase 9A (O76083 whole entry): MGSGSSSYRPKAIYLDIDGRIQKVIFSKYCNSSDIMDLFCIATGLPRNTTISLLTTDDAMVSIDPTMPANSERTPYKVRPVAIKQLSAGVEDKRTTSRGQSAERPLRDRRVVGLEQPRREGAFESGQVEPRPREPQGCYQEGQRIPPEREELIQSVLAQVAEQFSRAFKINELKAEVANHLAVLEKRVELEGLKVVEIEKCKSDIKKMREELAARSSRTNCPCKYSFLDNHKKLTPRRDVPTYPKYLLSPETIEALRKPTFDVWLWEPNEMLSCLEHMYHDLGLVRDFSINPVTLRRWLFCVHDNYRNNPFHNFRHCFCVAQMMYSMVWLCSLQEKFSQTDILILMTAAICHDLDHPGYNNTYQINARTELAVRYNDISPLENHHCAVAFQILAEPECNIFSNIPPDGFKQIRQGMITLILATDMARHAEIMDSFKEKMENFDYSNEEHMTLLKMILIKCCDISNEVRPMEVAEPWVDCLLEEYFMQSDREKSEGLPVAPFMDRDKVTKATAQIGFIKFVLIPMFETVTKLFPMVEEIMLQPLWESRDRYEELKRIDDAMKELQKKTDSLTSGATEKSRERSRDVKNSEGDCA

Acetylcholinesterase [18] = molecular target: T1, Acetylcholinesterase; assay: Inhibition of AChE (unknown origin)
[19] = molecular target: T6, Glycogen synthase kinase-3 beta (Homo sapiens, UniProt P49841); assay: Inhibition of GSK3beta (unknown origin)
T6 sequence (P49841 whole entry): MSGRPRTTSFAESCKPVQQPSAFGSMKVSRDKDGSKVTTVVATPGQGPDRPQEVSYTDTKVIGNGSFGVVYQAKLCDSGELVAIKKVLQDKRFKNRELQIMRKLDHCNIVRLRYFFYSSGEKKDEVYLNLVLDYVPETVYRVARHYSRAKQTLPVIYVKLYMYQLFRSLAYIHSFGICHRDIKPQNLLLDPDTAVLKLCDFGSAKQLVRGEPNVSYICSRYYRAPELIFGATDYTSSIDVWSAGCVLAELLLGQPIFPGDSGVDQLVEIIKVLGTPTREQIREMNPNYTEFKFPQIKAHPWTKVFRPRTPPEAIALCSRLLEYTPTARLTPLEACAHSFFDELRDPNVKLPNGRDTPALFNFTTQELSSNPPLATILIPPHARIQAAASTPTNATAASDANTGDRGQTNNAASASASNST

[20] = molecular target: T6, Glycogen synthase kinase-3 beta
Description: Inhibition of human GSK3beta by TR-FRET analysis

Acetylcholinesterase [21] = molecular target: T3, Acetylcholinesterase; assay: Inhibition of electric eel AChE by Ellman's method
Cholinesterase [22] = molecular target: Cholinesterase (Equus caballus, UniProt P81908); assay: Inhibition of equine serum BuChE using butyrylthiocholine iodide as substrate preincubated for 5 mins followed by substrate addition by DTNB reagent based Ellman's method
Sequence of Cholinesterase (Equus caballus, UniProt P81908) (P81908 whole entry): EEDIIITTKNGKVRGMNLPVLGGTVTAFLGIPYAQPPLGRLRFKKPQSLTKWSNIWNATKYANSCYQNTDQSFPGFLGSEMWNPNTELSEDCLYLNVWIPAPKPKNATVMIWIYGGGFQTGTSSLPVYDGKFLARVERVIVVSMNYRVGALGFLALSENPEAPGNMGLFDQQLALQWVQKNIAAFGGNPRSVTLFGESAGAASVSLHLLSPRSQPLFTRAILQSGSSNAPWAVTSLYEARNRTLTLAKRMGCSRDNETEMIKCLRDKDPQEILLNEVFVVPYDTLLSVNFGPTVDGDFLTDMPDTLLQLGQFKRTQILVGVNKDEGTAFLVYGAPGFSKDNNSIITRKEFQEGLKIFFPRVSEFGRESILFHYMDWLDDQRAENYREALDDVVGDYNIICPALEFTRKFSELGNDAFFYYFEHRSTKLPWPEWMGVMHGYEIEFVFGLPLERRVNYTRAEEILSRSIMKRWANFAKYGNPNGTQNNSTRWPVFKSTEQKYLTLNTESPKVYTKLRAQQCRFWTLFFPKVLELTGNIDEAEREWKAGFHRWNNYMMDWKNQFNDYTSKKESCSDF

[23] = Permeability of compound at pH 7.4 by PAMPA assay; type: ADME; conditions: read-out: permeability
[24] = molecular target: T6, Glycogen synthase kinase-3 beta; assay: Inhibition of human recombinant GSK3beta by ADP-Glo Kinase Assay
Acetylcholinesterase [25] = molecular target: T1, Acetylcholinesterase; remark: listed apart in the source

T2 sequence (P56817 whole entry): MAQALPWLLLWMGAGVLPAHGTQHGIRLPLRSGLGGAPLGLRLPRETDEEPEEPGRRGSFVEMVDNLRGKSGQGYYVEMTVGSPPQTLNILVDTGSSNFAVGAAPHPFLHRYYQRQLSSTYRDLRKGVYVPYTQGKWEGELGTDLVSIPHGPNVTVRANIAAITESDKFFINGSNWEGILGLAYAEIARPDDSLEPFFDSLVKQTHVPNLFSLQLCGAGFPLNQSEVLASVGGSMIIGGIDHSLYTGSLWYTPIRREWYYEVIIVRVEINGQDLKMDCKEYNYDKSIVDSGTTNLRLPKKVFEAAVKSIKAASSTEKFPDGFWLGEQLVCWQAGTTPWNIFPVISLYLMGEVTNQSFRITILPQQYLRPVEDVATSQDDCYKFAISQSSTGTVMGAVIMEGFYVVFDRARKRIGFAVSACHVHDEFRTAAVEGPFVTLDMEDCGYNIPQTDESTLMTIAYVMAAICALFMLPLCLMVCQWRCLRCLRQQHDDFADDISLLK
T1 sequence (P22303 whole entry): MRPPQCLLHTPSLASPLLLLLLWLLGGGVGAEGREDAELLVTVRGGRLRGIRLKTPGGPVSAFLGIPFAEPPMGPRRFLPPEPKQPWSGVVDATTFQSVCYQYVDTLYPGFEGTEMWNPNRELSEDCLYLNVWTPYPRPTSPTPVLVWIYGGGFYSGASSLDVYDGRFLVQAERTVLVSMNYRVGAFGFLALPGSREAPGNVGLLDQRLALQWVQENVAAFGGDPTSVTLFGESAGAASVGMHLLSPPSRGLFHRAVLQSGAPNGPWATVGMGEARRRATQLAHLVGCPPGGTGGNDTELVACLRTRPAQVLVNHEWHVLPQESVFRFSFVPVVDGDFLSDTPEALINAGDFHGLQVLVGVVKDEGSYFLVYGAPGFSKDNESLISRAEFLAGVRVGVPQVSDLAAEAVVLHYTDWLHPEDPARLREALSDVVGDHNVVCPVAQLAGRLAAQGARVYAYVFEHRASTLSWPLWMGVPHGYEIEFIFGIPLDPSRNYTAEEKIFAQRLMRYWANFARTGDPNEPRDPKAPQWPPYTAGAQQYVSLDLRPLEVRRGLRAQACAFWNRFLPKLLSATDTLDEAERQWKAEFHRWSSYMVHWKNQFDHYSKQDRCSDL

Structure (SMILES): O=C(CN1CCC(Cc2ccccc2)CC1)c1ccc2ccccc2c1
- IC50 (Acetylcholinesterase [1]): 9.13 µM

Structure (SMILES): COc1ccc2c(c1)C/C(=C/c1ccccc1-c1ccc3nc(N)ccc3c1)C2=O
- IC50 (Beta-secretase 1 [2]): 0.0131 µM
- IC50 (Acetylcholinesterase [3]): 0.0147 µM

Structure (SMILES): COc1ccccc1/C=C1\Oc2cc(OCCN3CCCC3)ccc2C1=O
- IC50 [4]: 0.98 µM
- IC50 (Acetylcholinesterase [5]): 2.67 µM
- IC50 [6]: > 100 µM

Structure (SMILES): Nc1ccccc1C(=O)/C=C/c1cnc2ccccc2c1
- IC50 (Acetylcholinesterase [7]): 0.54 µM
- IC50 (Beta-secretase 1 [8]): 16.9 µM

Structure (SMILES): O=C(N/N=C/c1ccc([N+](=O)[O-])cc1)c1ccc(Cl)nc1
- IC50 (Acetylcholinesterase [9]): 0.02 µM
- IC50 (Beta-secretase 1 [10]): 0.2 µM

Structure (SMILES): Cn1c(NCCCCCCCNc2c3c(nc4cc(Cl)ccc24)CCCC3)nc(-c2ccncc2F)cc1=O
- IC50 (Acetylcholinesterase [11]): 0.0511 µM

Structure (SMILES): CN(C)c1ccc(/C=C/C(=O)c2ccc(N3CCOCC3)cc2)cc1
- IC50 (Cholinesterase [12]): > 40 µM
- IC50 [6]: > 40 µM

Structure (SMILES): COc1ccc(NC(=O)C2CCN(Cc3ccccc3)CC2)cc1OC
- IC50 (Beta-secretase 1 [13]): 0.243 µM
- IC50 (Acetylcholinesterase [14]): 0.145 µM

Structure (SMILES): COc1ccccc1NC(=O)C1CCN(Cc2ccccc2)CC1
- IC50 (Beta-secretase 1 [13]): 0.277 µM
- IC50 (Acetylcholinesterase [14]): 0.157 µM

Structure (SMILES): O=C1/C(=C/c2ccc(O)cc2)Oc2cc(O)ccc21
- IC50 (Acetylcholinesterase [15]): 202 µM

Structure (SMILES): CCO/C(C)=N/Oc1ccc(/C=C/C(=O)c2ccc(C)cc2)cc1
- IC50 (Acetylcholinesterase [16]): 0.85 µM
- IC50 [4]: 0.03 µM
- IC50 [6]: 15 µM

Structure (SMILES): O=C(/C=C/c1ccc(OCc2ccccc2)cc1)c1ccc2c(c1)OCO2
- IC50 (Acetylcholinesterase [16]): 5.4 µM
- IC50 [4]: 1.54 µM
- IC50 [6]: 8.61 µM

Structure (SMILES): COc1ccc2c(c1)C/C(=C/c1ccccc1-c1ccccc1)C2=O
- IC50 (Beta-secretase 1 [2]): 0.125 µM
- IC50 (Acetylcholinesterase [3]): 0.0298 µM

Structure (SMILES): O=c1[nH]c(CCCCC2CCN(Cc3ccccc3)CC2)nc2c1cnn2C1CCCC1
- IC50 [17]: 0.28 µM
- IC50 (Acetylcholinesterase [18]): 0.04 µM

Structure (SMILES): CCOc1ccc(C(=O)/C=C/c2ccccc2)cc1
- IC50 (Acetylcholinesterase [16]): 3.23 µM
- IC50 [4]: 0.4 µM
- IC50 [6]: 28.5 µM

Structure (SMILES): O=C(/C=C/c1ccc(F)cc1)c1ccc(Br)s1
- IC50 (Acetylcholinesterase [16]): 18.2 µM
- IC50 (Cholinesterase [12]): 16.3 µM
- IC50 [4]: 1.71 µM
- IC50 [6]: 4.06 µM

- IC50 [19]: 5.63 µM
Structure (SMILES): Cn1c(NCC(=O)c2ccccc2)nc(-c2ccncc2)cc1=O

Structure (SMILES): COc1ccc(NC(=O)C2CCN(Cc3ccccc3)CC2)cc1
- IC50 (Beta-secretase 1 [13]): 0.253 µM
- IC50 (Acetylcholinesterase [14]): 0.165 µM

Structure (SMILES): Nc1ccccc1C(=O)/C=C/c1cnc2c(c1)OCO2
- IC50 (Acetylcholinesterase [7]): 4.16 µM

Structure (SMILES): O=c1[nH]c(COCCC2CCN(Cc3ccccc3)CC2)nc2c1cnn2C1CCCC1
- IC50 [17]: 0.53 µM
- IC50 (Acetylcholinesterase [18]): 0.23 µM

Structure (SMILES): COc1ccc(/C=N/NC(=O)c2ccc(Cl)nc2)cc1OC
- IC50 (Acetylcholinesterase [9]): 0.03 µM
- IC50 (Beta-secretase 1 [10]): 0.4 µM

Structure (SMILES): O=CNc1nccc2c1[nH]c1cc(C(=O)NCCC3CCN(Cc4ccccc4F)CC3)ccc12
- IC50 [20]: 6.78 µM
- IC50 (Acetylcholinesterase [21]): 0.27 µM

Structure (SMILES): COc1cc(/C=C2\Oc3cc(OCCN4CCCCC4)ccc3C2=O)cc(OC)c1OC
- IC50 [4]: 0.34 µM
- IC50 (Acetylcholinesterase [5]): 1.56 µM
- IC50 [6]: > 100 µM

Structure (SMILES): Fc1ccc(-c2nnc(N3CCN(c4ccccn4)CC3)o2)c(F)c1
- IC50 (Beta-secretase 1 [10]): 0.21 µM
- IC50 (Cholinesterase [22]): 0.16 µM

- Papp at 18 h [23]: 53 nm/s
Structure (SMILES): COc1cc(/C=C/c2nnc(-c3ccc(C(F)(F)F)cc3)o2)ccc1O

Structure (SMILES): CCN(CCCCOc1ccc(C(=O)/C=C/c2ccc(N(C)C)cc2)c(O)c1)Cc1ccccc1N(C)C
- IC50 (Acetylcholinesterase [16]): 0.13 µM
- IC50 (Cholinesterase [12]): 0.13 µM

Structure (SMILES): COc1nc(-c2ccnc(NC(=O)C3CC3)c2)sc1C(=O)NCNc1c2c(nc3ccccc13)CCCC2
- IC50 [24]: 0.068 µM
- IC50 (Acetylcholinesterase [25]): 0.0063 µM

Reference: ChEMBL document CHEMBL6127041, “Dual-target inhibitors based on acetylcholinesterase: Novel agents for Alzheimer's disease” (Eur J Med Chem, 2024)
